Test results taken from patent publication US7786054B2, “Biocide for well stimulation and treatment fluids” (Kemira Chemicals, Inc., priority 2006, dated 2010).
“Also recorded” adds a separate entry of the source.

Tests used:
[1] = system: sulfate reducing bacteria (SRB); assay: Biocidal effectiveness on sulfate reducing bacteria in spiked frac pond water, serial dilution counts over 180 days with challenges; format: cell-based; settings: for control of SRB in frac pond water (summary in words): up to 180 days contact time, challenges at 14, 28 and 129 days
Experimental: (§1) In this example, the biocidal effectiveness on sulfate reducing bacteria (SRB) and acid producing bacteria (AB) for biocide formulations containing CB Thione and WB Thione to Glut and THPS was examined.
(§2) A one gallon sample was separated from a five gallon sample of frac pond water for these studies. The frac pond water sample included SRB and AB. Ten mL of a 10^9 cfu/mL inoculum of SRB grown in anaerobic API broth containing an O2 scavenger and 10 mL of a 10^9 cfu/mL inoculum of AB grown in anaerobic phenol red (anPR) broth containing an O2 scavenger were added to the one gallon frac pond water sample, mixed well and allowed to incubate for a period of time sufficient to achieve a desired number of SRB and AB. All broth media for inoculum and serial dilution counts in this study was made at 4% salinity to match the salinity of the original frac pond water measured by total dissolved solids testing. To increase nutrient value and to emulate on-site friction reducing additives, a 30 weight % acrylic acid, 70% acrylamide copolymer was added to the inoculated gallon of frac pond water sample at 300 ppm and then referred to as the spiked frac pond water sample. The spiked sample was then divided into 99.0 g aliquots for testing the effect of various biocides at various concentrations on the SRB and AB over a 180 day contact time. One spiked aliquot would serve as the control sample to which no biocide would be added. Challenges were made to all aliquots using 0.5 mL of 10^8 SRB and 0.5 mL, of 10^8 AB at 14, 28, and 129 days contact time.
(§3) The biocides included a 20% water based Thione (WB Thione), a 24% caustic based Thione (CB Thione), a 25% Glut, and a 35% THPS. Stock biocide solutions of various concentrations were made from these biocides as described below.
(§4) The WB Thione stock solutions were prepared by adding 3.0 g of the biocide to 17.0 g of sterile distilled water to form an intermediate solution, followed by combining each intermediate solution with water in the accounts shown in Table 1 below to make the descending concentrations as shown in Table 1.
as §4, with “The CB” for “The WB”, “the amounts” for “the accounts”, “Table 2” for “Table 1”, “Table 2.” for “Table 1.”
(§5) The Glut stock solutions were prepared by adding 1.0 g biocide to 19.0 g of sterile distilled water to form an intermediate solution, followed by combining each intermediate solution with water in the amounts shown in Table 3 below to make the descending concentrations as shown in Table 3.
(§6) The THPS stock solutions were prepared by adding 1.0 g of the biocide to 19.0 g of sterile distilled water to form an intermediate solution, followed by combining each intermediate solution with water in the amounts shown in Table 4 below to make the descending concentrations as shown in Table 4.
(§7) Next, 1 g of each biocide stock solution was added to the appropriately labeled 99.0 g aliquot. Also, 1.0 g of sterile water was added to the control aliquot. The concentrations of the biocides present in each aliquot are provided below in Table 5.
(§8) The aliquots were then incubated at room temperature in the dark for the entire study, i.e., 6 months. […] Using sterile syringes, this testing was performed by serial diluting the aliquots into sealed 9.0 mL anaerobic API broth and anaerobic PR broth bottles, both media containing an O2 scavenger, in the appropriate labeled set of SRB bottles (6 for each aliquot) mid AB bottles (6 for each aliquot) until a color change occurred, indicating the log quantity of organisms present in each aliquot.

[2] = system: acid producing bacteria (AB); assay: Biocidal effectiveness on acid producing bacteria in spiked frac pond water, serial dilution counts over 180 days with challenges; format: cell-based; settings: for control of AB in frac pond water (summary in words): up to 180 days contact time, challenges at 14, 28 and 129 days
Experimental: as §1, §2, §3, §4
as §4, with “The CB” for “The WB”, “the amounts” for “the accounts”, “Table 2” for “Table 1”, “Table 2.” for “Table 1.”
as §5, §6, §7, §8

[3] = 500 ppm as is (Glut, THPS), 7 Days
[4] = 500 ppm as is (Glut, THPS), 14 Days
[5] = 500 ppm as is (Glut, THPS), 21 Days
[6] = 500 ppm as is (Glut, THPS), 28 Days
[7] = 500 ppm as is (Glut, THPS), 35 Days
[8] = 500 ppm as is (Glut, THPS), 42 Days
[9] = 500 ppm as is (Glut, THPS), 58 Days
[10] = 500 ppm as is (Glut, THPS), 90 Days

O=S(=O)([O-])[O-].OC[P+](CO)(CO)CO.OC[P+](CO)(CO)CO [THPS, tetra-kis-hydroxymethyly-phosphonium sulfate]
Log 10 Anaerobic Sulfate Reducing Bacteria/mL ([1]; 60 ppm as is (DA), 7 Days): ≧6 Log 10 Bacteria/mL
Log 10 Anaerobic Sulfate Reducing Bacteria/mL ([1]; 60 ppm as is (DA), 14 Days): ≧6 Log 10 Bacteria/mL
Log 10 Anaerobic Sulfate Reducing Bacteria/mL ([1]; 60 ppm as is (DA), 21 Days): ≧5 Log 10 Bacteria/mL
Log 10 Anaerobic Sulfate Reducing Bacteria/mL ([1]; 60 ppm as is (DA), 28 Days): ≧6 Log 10 Bacteria/mL
Log 10 Anaerobic Sulfate Reducing Bacteria/mL ([1]; 60 ppm as is (DA), 35 Days): ≧6 Log 10 Bacteria/mL
Log 10 Anaerobic Sulfate Reducing Bacteria/mL ([1]; 60 ppm as is (DA), 42 Days): ≧6 Log 10 Bacteria/mL
Log 10 Anaerobic Sulfate Reducing Bacteria/mL ([1]; 60 ppm as is (DA), 58 Days): ≧6 Log 10 Bacteria/mL
Log 10 Anaerobic Sulfate Reducing Bacteria/mL ([1]; 60 ppm as is (DA), 90 Days): ≧6 Log 10 Bacteria/mL
Log 10 Anaerobic Sulfate Reducing Bacteria/mL ([1]; 100 ppm as is, 7 Days): 5 Log 10 Bacteria/mL
Log 10 Anaerobic Sulfate Reducing Bacteria/mL ([1]; 100 ppm as is, 14 Days): 5 Log 10 Bacteria/mL
Log 10 Anaerobic Sulfate Reducing Bacteria/mL ([1]; 100 ppm as is, 21 Days): ≧5 Log 10 Bacteria/mL
Log 10 Anaerobic Sulfate Reducing Bacteria/mL ([1]; 100 ppm as is, 28 Days): ≧6 Log 10 Bacteria/mL
Log 10 Anaerobic Sulfate Reducing Bacteria/mL ([1]; 100 ppm as is, 35 Days): ≧6 Log 10 Bacteria/mL
Log 10 Anaerobic Sulfate Reducing Bacteria/mL ([1]; 100 ppm as is, 42 Days): ≧6 Log 10 Bacteria/mL
Log 10 Anaerobic Sulfate Reducing Bacteria/mL ([1]; 100 ppm as is, 58 Days): ≧6 Log 10 Bacteria/mL
Log 10 Anaerobic Sulfate Reducing Bacteria/mL ([1]; 100 ppm as is, 90 Days): ≧6 Log 10 Bacteria/mL
Log 10 Anaerobic Sulfate Reducing Bacteria/mL ([1]; 200 ppm as is, 7 Days): 0 Log 10 Bacteria/mL
Log 10 Anaerobic Sulfate Reducing Bacteria/mL ([1]; 200 ppm as is, 14 Days): 0 Log 10 Bacteria/mL
Log 10 Anaerobic Sulfate Reducing Bacteria/mL ([1]; 200 ppm as is, 21 Days): ≧6 Log 10 Bacteria/mL
Log 10 Anaerobic Sulfate Reducing Bacteria/mL ([1]; 200 ppm as is, 28 Days): ≧6 Log 10 Bacteria/mL
Log 10 Anaerobic Sulfate Reducing Bacteria/mL ([1]; 200 ppm as is, 35 Days): ≧6 Log 10 Bacteria/mL
Log 10 Anaerobic Sulfate Reducing Bacteria/mL ([1]; 200 ppm as is, 42 Days): ≧6 Log 10 Bacteria/mL
Log 10 Anaerobic Sulfate Reducing Bacteria/mL ([1]; 200 ppm as is, 58 Days): ≧6 Log 10 Bacteria/mL
Log 10 Anaerobic Sulfate Reducing Bacteria/mL ([1]; 200 ppm as is, 90 Days): ≧6 Log 10 Bacteria/mL
Log 10 Anaerobic Sulfate Reducing Bacteria/mL [1, 3]: 0 Log 10 Bacteria/mL
Log 10 Anaerobic Sulfate Reducing Bacteria/mL [1, 4]: 0 Log 10 Bacteria/mL
Log 10 Anaerobic Sulfate Reducing Bacteria/mL [1, 5]: 4 Log 10 Bacteria/mL
Log 10 Anaerobic Sulfate Reducing Bacteria/mL [1, 6]: 3 Log 10 Bacteria/mL
Log 10 Anaerobic Sulfate Reducing Bacteria/mL [1, 7]: 3 Log 10 Bacteria/mL
Log 10 Anaerobic Sulfate Reducing Bacteria/mL [1, 8]: ≧6 Log 10 Bacteria/mL
Log 10 Anaerobic Sulfate Reducing Bacteria/mL [1, 9]: ≧6 Log 10 Bacteria/mL
Log 10 Anaerobic Sulfate Reducing Bacteria/mL [1, 10]: ≧6 Log 10 Bacteria/mL
control of SRB in frac pond water (summary in words) [1]: lost all control of SRB and AB from 1 to 21 days contact time; also recorded: failed completely after challenging once at 14 days contact time at all concentrations
Log 10 Anaerobic Acid Producing Bacteria/mL ([2]; 50 ppm as is, 7 Days): 5 Log 10 Bacteria/mL
Log 10 Anaerobic Acid Producing Bacteria/mL ([2]; 50 ppm as is, 14 Days): ≧6 Log 10 Bacteria/mL
Log 10 Anaerobic Acid Producing Bacteria/mL ([2]; 50 ppm as is, 21 Days): ≧6 Log 10 Bacteria/mL
Log 10 Anaerobic Acid Producing Bacteria/mL ([2]; 50 ppm as is, 28 Days): ≧6 Log 10 Bacteria/mL
Log 10 Anaerobic Acid Producing Bacteria/mL ([2]; 50 ppm as is, 35 Days): ≧6 Log 10 Bacteria/mL
Log 10 Anaerobic Acid Producing Bacteria/mL ([2]; 50 ppm as is, 42 Days): ≧6 Log 10 Bacteria/mL
Log 10 Anaerobic Acid Producing Bacteria/mL ([2]; 50 ppm as is, 58 Days): ≧6 Log 10 Bacteria/mL
Log 10 Anaerobic Acid Producing Bacteria/mL ([2]; 50 ppm as is, 90 Days): ≧6 Log 10 Bacteria/mL
Log 10 Anaerobic Acid Producing Bacteria/mL ([2]; 100 ppm as is, 7 Days): 5 Log 10 Bacteria/mL
Log 10 Anaerobic Acid Producing Bacteria/mL ([2]; 100 ppm as is, 14 Days): 5 Log 10 Bacteria/mL
Log 10 Anaerobic Acid Producing Bacteria/mL ([2]; 100 ppm as is, 21 Days): ≧6 Log 10 Bacteria/mL
Log 10 Anaerobic Acid Producing Bacteria/mL ([2]; 100 ppm as is, 28 Days): ≧6 Log 10 Bacteria/mL
Log 10 Anaerobic Acid Producing Bacteria/mL ([2]; 100 ppm as is, 35 Days): ≧6 Log 10 Bacteria/mL
Log 10 Anaerobic Acid Producing Bacteria/mL ([2]; 100 ppm as is, 42 Days): ≧6 Log 10 Bacteria/mL
Log 10 Anaerobic Acid Producing Bacteria/mL ([2]; 100 ppm as is, 58 Days): ≧6 Log 10 Bacteria/mL
Log 10 Anaerobic Acid Producing Bacteria/mL ([2]; 100 ppm as is, 90 Days): ≧5 Log 10 Bacteria/mL
Log 10 Anaerobic Acid Producing Bacteria/mL ([2]; 200 ppm as is, 7 Days): 1 Log 10 Bacteria/mL
Log 10 Anaerobic Acid Producing Bacteria/mL ([2]; 200 ppm as is, 14 Days): 0 Log 10 Bacteria/mL
Log 10 Anaerobic Acid Producing Bacteria/mL ([2]; 200 ppm as is, 21 Days): ≧6 Log 10 Bacteria/mL
Log 10 Anaerobic Acid Producing Bacteria/mL ([2]; 200 ppm as is, 28 Days): ≧6 Log 10 Bacteria/mL
Log 10 Anaerobic Acid Producing Bacteria/mL ([2]; 200 ppm as is, 35 Days): ≧6 Log 10 Bacteria/mL
Log 10 Anaerobic Acid Producing Bacteria/mL ([2]; 200 ppm as is, 42 Days): ≧6 Log 10 Bacteria/mL
Log 10 Anaerobic Acid Producing Bacteria/mL ([2]; 200 ppm as is, 58 Days): ≧6 Log 10 Bacteria/mL
Log 10 Anaerobic Acid Producing Bacteria/mL ([2]; 200 ppm as is, 90 Days): ≧6 Log 10 Bacteria/mL
Log 10 Anaerobic Acid Producing Bacteria/mL [2, 3]: 0 Log 10 Bacteria/mL
Log 10 Anaerobic Acid Producing Bacteria/mL [2, 4]: 0 Log 10 Bacteria/mL
Log 10 Anaerobic Acid Producing Bacteria/mL [2, 5]: 4 Log 10 Bacteria/mL
Log 10 Anaerobic Acid Producing Bacteria/mL [2, 6]: 3 Log 10 Bacteria/mL
Log 10 Anaerobic Acid Producing Bacteria/mL [2, 7]: 4 Log 10 Bacteria/mL
Log 10 Anaerobic Acid Producing Bacteria/mL [2, 8]: 3 Log 10 Bacteria/mL
Log 10 Anaerobic Acid Producing Bacteria/mL [2, 9]: ≧6 Log 10 Bacteria/mL
Log 10 Anaerobic Acid Producing Bacteria/mL [2, 10]: ≧6 Log 10 Bacteria/mL
control of AB in frac pond water (summary in words) [2]: lost all control of SRB and AB from 1 to 21 days contact time; also recorded: failed after challenging once at 14 days contact time

CN1CSC(=S)N(C)C1 [Thione, 3,5-dimethyl-1,3,5-thiadiazinane-2-thione]
control of SRB in frac pond water (summary in words) [1]: much more effective at inhibiting SRB and AB growth in frac water than the Glut and THPS treatments; also recorded: exceptional control over both the short and long term for SRB through 3 substantial challenges
control of AB in frac pond water (summary in words) [2]: much more effective at inhibiting SRB and AB growth in frac water than the Glut and THPS treatments
